Experimental data: PMC11460631, “Inhibition of transient receptor potential vanilloid 3 channels by antimalarial hydroxychloroquine alleviates TRPV3-dependent dermatitis” (The Journal of Biological Chemistry, 2024)

Legend:
TRPV3 mutant W692C = biological target: T1, TRPV3 mutant W692C (Homo sapiens, UniProt Q8NET8, W692C); assay: Whole-cell recording of gain-of-function TRPV3 mutant W692C; assay type: cell-based; settings: concentration gradients of HCQ, ± 80 mV
T1 construct: YFP or GFP; expressed in transfected cells; host or cells: HEK293T
T1 sequence (Q8NET8 1-790 W692C): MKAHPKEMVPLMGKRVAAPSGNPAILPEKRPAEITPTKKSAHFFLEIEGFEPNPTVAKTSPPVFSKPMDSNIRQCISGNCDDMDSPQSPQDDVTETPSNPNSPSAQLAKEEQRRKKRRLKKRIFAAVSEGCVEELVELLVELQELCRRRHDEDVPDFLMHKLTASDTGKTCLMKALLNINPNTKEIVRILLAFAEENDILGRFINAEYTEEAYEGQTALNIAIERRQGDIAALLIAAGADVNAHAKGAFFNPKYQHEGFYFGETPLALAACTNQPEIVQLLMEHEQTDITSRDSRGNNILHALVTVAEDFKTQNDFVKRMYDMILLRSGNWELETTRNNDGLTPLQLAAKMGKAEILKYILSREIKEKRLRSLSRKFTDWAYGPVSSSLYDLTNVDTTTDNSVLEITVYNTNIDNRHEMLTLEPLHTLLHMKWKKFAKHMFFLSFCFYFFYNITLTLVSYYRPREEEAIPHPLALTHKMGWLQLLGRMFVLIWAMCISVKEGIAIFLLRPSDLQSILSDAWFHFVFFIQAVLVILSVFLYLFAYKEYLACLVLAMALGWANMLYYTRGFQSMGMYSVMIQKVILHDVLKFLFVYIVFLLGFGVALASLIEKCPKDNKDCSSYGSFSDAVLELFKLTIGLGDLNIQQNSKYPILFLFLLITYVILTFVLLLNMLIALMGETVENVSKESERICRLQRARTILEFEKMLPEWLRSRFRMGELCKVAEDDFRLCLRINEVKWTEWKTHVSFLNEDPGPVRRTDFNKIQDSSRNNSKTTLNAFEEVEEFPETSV
Method: To test the effect of HCQ on carvacrol-induced skin inflammation, we evaluated the inhibitory effect of HCQ on TRPV3 activated by carvacrol in vitro.
Figure 5 HCQ can attenuate mice back skin lesions induced by TRPV3 agonist carvacrol.A, representative whole-cell recording of TRPV3 in response to 1 mM carvacrol (Car), the mixture of 1 mM Car, and concentration gradients of HCQ with the holding potential of ± 80 mV. B, concentration–response curve of Car and HCQ on TRPV3 channels fitted by Hill equation. Data were shown as mean ± SEM (n = 6 cells). C, representative whole-cell recording of W692C mutants in response to concentration gradients of HCQ with the holding potential of ± 80 mV. D, concentration–response curve of HCQ on W692C mutants fitted by Hill equation. Data were shown as mean ± SEM (n = 4 cells). E, paradigm of generation of AD-like mice model induced by Car. […] A 200 μl volume of drug was applied to each mouse. Green lines indicate the thickness of the epidermis. Upper panel, the scale bar represents 2 cm; bottom panel, scale bar represents 100 μm. G–I, quantification of thickness (G), erythema (H), dryness, and scaling (I), (n = 6 mice, mean ± SEM), thickness: F (3, 20) = 20.68, p < 0.0001; erythema: F (3, 20) = 55.10, p < 0.0001; dryness and scaling: F (3, 20) = 39.61, p < 0.0001 by one-way ANOVA followed using Tukey's post hoc test. […]

[1] = test system: TNF-α, IL-6, IgE, IL-4 in mouse dorsal skin tissues; assay: Carvacrol-induced AD-like mouse model: inflammatory factors by ELISA; assay type: in vivo
Method: We therefore generated a carvacrol-induced AD mouse model to test the effect of HCQ.
To generate an AD-like mice model, 2% carvacrol (dissolved in 30% ethanol solution) was topically smeared onto the mice dorsum 1 day after hair removal with a depilatory cream (Vetin Depilatory Cream). Mice received a topical administration of an equal volume (200 μl) of 2% carvacrol or in the presence of 2 mg/ml HCQ. […] After the application of carvacrol for 5 days, the external appearance of mice was photographed and then sampled. The external appearance was graded based on three aspects: thickness, erythema/bleeding, and dryness/desquamation, with severity assessed on a score of 0 to 4. The degree of thickness was measured by the thickness of the skin in H&E staining. Skin tissues were either fixed in 4% paraformaldehyde or placed in PBS buffer containing 1% protease inhibitor, facilitating subsequent steps of paraffin embedding or ELISA experiments.
Animal skin tissues were placed in PBS buffer containing 1% protease inhibitors, then homogenized, and centrifuged for supernatants. Cytokine concentrations of supernatants (IL-4, IL-6, TNF-α, and IgE) were measured using ELISA kits (Tsingke) according to the manufacturer's instructions. The absorption at 450 nm was measured by a microplate reader (Thermo Multiskan MK3).

[2] = mouse tissues, HCQ 2 mg/ml topical with 2% carvacrol, 5 days

effect on activity of gain-of-function TRPV3 mutant W692C (TRPV3 mutant W692C): inhibited
Structure (SMILES): CCN(CCO)CCCC(C)Nc1ccnc2cc(Cl)ccc12 (centres unmarked) [HCQ, hydroxychloroquine]
suppression of serum IgE levels ([1]; HCQ 2 mg/ml topical with 2% carvacrol, 5 days): 60.22 ± 11.26% | IL-4 levels compared to the model group ([1]; mouse tissues, HCQ 2 mg/ml or DXM 1 mg/ml topical with 2% carvacrol): no significant difference | inhibition of release of carvacrol-induced IL-6 [1, 2]: 77.09% ± 5.38% | inhibition of release of carvacrol-induced TNF-α [1, 2]: 88.10% ± 4.12%
